Residues, ends and D or L forms follow the SMILES beside them. *: point of attachment. Cbz = O=C(OCc1ccccc1)*; Boc = CC(C)(C)OC(=O)*
Structure (SMILES)	melting point [°C]
O=C1N=C(NN2CCCC2)SC1=Cc1cccc(-c2cc(F)c(O)c(C34CC5CC(CC(C5)C3)C4)c2)c1	293 to 296
N#CC1=C(C2CCC2)Nc2n[nH]cc2C1c1ccccc1Cl (stereo not given)	188
CCOC(=O)c1ccc2cncc(I)c2n1	135 to 137
O=C(c1ccc(Br)cc1)c1ccc([N+](=O)[O-])cc1	123 to 124
CNc1nc(C)c(-c2nc3ccccc3c(=O)n2-c2ccccc2)s1	209 to 210
C#Cc1ccc(C#C)cc1	91 to 92
COC(=O)CCSc1cc(C(C)(C)C)c(O)c(C(C)(C)C)c1	63.5 to 65.5
COc1ccc2oc(Cc3cc(C(F)(F)F)cc(C(F)(F)F)c3)c(CC#N)c2c1	112
O=C(NCCCC1CC1)c1ccc(N2CCC(N3C(=O)C(F)(F)c4ccccc43)CC2)nn1	51 to 53
CC12CCC3c4cc(C=O)c(O)cc4CCC3C1CCC2O (stereo not given)	219 to 221
Cc1nc2n(C)c(C)cn2c(=O)c1CCBr	125
CC(C)(CC(O)(C(=O)Nc1ccc([N+](=O)[O-])c(C(F)(F)F)c1)C(F)(F)F)c1ccccc1 (stereo not given)	119 to 120
N#CC1CN1C(=O)NC(=O)c1cccs1 (stereo not given)	156 to 160
COC(=O)C(C)(N)Cc1c[nH]c2ccc(OC(F)F)cc12 (racemic)	140 to 142
CN1C(=O)[C@@H](CN2CCCCC2)C[C@H]1c1ccc(Br)cc1	55 to 58
Cn1c(C(F)(F)F)cc(=O)n(-c2ccc3snc(-c4sccc4CO)c3c2)c1=O	168 to 169
CS(=O)CC(=O)c1ccon1 (stereo not given)	164 to 166

Structure (SMILES)	melting point [°C]
COc1cc2c(c(Cl)c1Cl)SCC2=O	178 to 180
CCC1c2c(ncn2C)CCN1C(=O)NC(C)C (stereo not given)	220
CSCC(C)(C)c1nnc(N)s1	117 to 120
Cc1ccc(C=CC(=O)N(C)O)cc1	142 to 144
CNC(=O)[C@@H](C[C@H](O)[C@H](CC1CCCCC1)NC(=O)[C@H](Cc1cscn1)NC(=O)OC(C)(C)C)C(C)(C)O	203 to 205
O=S(=O)(C1CC1)N1CCC(Nc2nccc(-c3c(-c4ccc(F)c(O)c4)nc4sccn34)n2)CC1	224 to 225
CC(C)(C(C#N)=NO)S(C)(=O)=O	139 to 141
NCC(=O)Nc1c(Br)cc(Br)cc1Br	185 to 186
COc1ccc(OC)c2c1CCC(NC(C)=O)C2 (stereo not given)	156 to 158
CC1(Br)CCCNC1=O (stereo not given)	107 to 109
CC(NC(=O)OCc1ccccc1)C(=O)NC(C(=O)NC(CCCCNC(=O)OC(C)(C)C)C(N)=O)C(C)C (stereo not drawn) (Cbz-Ala-Val-Lys(Boc)-NH2; configuration not given here)	214 to 217
c1cc2[nH]ncc2cc1OC1CCCCC1	144 to 146
O=C(Br)c1ccc(F)c(Br)c1	34.8 to 35.8
Clc1nc2ncnn2c(NC2CCCC2)c1-c1ccsc1	78
CNC(=O)n1nc(Oc2c(Cl)cc(C(F)(F)F)cc2Cl)c(Cl)c1C	125 to 127
CC(=O)C1(O)C=c2ccccc2=NC1C (stereo not given)	54 to 56

Further lines, results first:

melting point [°C]	Structure (SMILES)
206 to 207	O=C(N[C@H](Cc1ccc(C(F)(F)F)cc1)[C@@H](O)c1ccoc1)c1ccc(F)c2ccccc12 (racemic)
205 to 207	CC(=O)Nc1cc(S(=O)(=O)c2ccccc2)ccc1NC(=O)C(C)(O)C(F)(F)F (stereo not given)
144 to 146	Cn1c(-c2ccc(-c3ccco3)cc2)cnc1[C@H](Cc1ccccn1)N(C=O)c1cc2cc(Cl)ccc2o1
103 to 105	OCCCSc1nc2ccc(Cc3ccccc3)cc2[nH]1
236 to 238	O=C(Nc1nc(-c2ccccc2)nc2[nH]ccc12)[C@@H]1CCCN1
184 to 187	CCOC(=O)COc1cccc2c1CCc1sc(S(=O)(=O)C(c3ccccc3)c3ccccc3)nc1-2
129 to 131	O=c1ccn(C2CC(O)C(CNC(c3ccccc3)(c3ccccc3)c3ccccc3Cl)O2)c(=O)[nH]1 (stereo not given)
107 to 109	O=C(CNc1ccccc1)N1CCC(Cc2ccccc2)CC1
106 to 108	O=C1C(CCO)Oc2cc([N+](=O)[O-])ccc2N1Cc1ccccc1Cl (stereo not given)
283 to 284	COc1ccc(C(=O)Nc2cccc(C(=O)O)c2)c2c1OCCO2
198 to 200	O=C(O)c1cn(CCc2ccccc2)c2cc(C3CCCC3)nn2c1=O
289 to 302	O=c1ccc(-c2ccccc2O)n[nH]1
164 to 166	Cn1ncnc1COc1nn2c(-c3cccnc3)nncc2c1-c1ccccc1F
185 to 188	O=C1C2CCCC2=Nc2ccccc2N1Cc1ccc([N+](=O)[O-])cc1 (stereo not given)
131 to 132	O=C1Nc2ccccc2C1CCCCN1CCN(c2ccccn2)CC1 (stereo not given)
195 to 197	CN(C)[C@H]1C[C@@H]2CN(C(=O)c3ccc(NC(=O)c4ccccc4-c4ccccc4)cc3)c3ccccc3N2C1
191 to 192	N#CCCNc1nonc1-c1nc2ccccc2n1CC(=O)c1ccc(Cl)cc1
149	O=C(c1ccncc1)c1cc(-c2ccccc2)c(N2CCOCC2)s1
140 to 143	C#CCN(Cc1cc2c(=O)n(C)c(CN3CCOCC3)nc2cc1Cl)c1ccc(C(=O)OC(C)(C)C)cc1

melting point [°C]	Structure (SMILES)
130	Cc1cc(-n2ccnc2)c2cccc(OCc3c(Cl)ccc(S(=O)(=O)N4CCCC4C(=O)NCC4CCCCN4C(=O)CC(=O)O)c3Cl)c2n1 (stereo not given)
210	CCn1c(N)c(C(=O)NC)c(=O)c2ccc(-c3ccc(NS(=O)(=O)c4cccc(Cl)c4Cl)cc3)nc21
166 to 168	O=C1c2cccc(-c3ccccc3)c2C(=O)C1c1ccccc1 (stereo not given)
276 to 278	COC(=O)c1ccc(C(=O)N(SSN(C(=O)c2ccc(C(=O)OC)cc2)c2ccccc2)c2ccccc2)cc1
239 to 240	CCc1c(C(=O)OC(C)C)ncc2[nH]c3ccc4nc(C)sc4c3c12
165 to 166	C#CCc1c(C)nc2c(NCc3c(C)cccc3NC(=S)NC(=O)c3ccccc3)cccn12
308 to 309	COC(=O)c1ccc(-c2nc3ccc(C(=O)O)cc3[nH]2)cc1
190 to 192	CS(=O)(=O)c1cc(-c2nc(=O)c3ccccc3s2)ccn1
177 to 178	CN(C)S(=O)(=O)NCc1ccc(C(c2cc(F)ccc2F)S(=O)(=O)c2ccc(Cl)cc2)nc1 (stereo not given)
240	CN1CS(=Nc2ccc3[nH]nnc3c2)c2ccccc21 (stereo not given)
248	Cc1nc(CCc2ccccc2)c2c(c1O)COC2
77 to 78.5	COC(=O)c1ccccc1Sc1cccc(O)c1
85 to 90	COc1ccc2nc(-c3ccc4c(c3)NC(=O)C4(C)C)[nH]c2c1
192 to 193	Cc1nc(N2CCN(Cc3ccc(F)cc3)C2=O)sc1C(=O)NCc1ccccc1
155 to 159	CCCCc1oc2ccccc2c1C(=O)Nc1ccc2c(Br)c(OCC#N)ccc2c1
> 119	CCCCc1nn(-c2cc(NC(=O)OCCC)ccc2Cl)c(=O)n1Cc1ccc(-c2ccccc2S(=O)(=O)NC(=O)c2ccccc2Cl)cc1
100 to 101	COC(=O)c1ccccc1C(=O)NC(C)(C)C#N
294 to 296	COc1ccc2c(c1)C(=O)c1c-2c(O)nc2ccccc12
